Reference: US20050215551A1, “1-[2H-1-benzopyran-2-one-8-yl]- piperazine derivatives for the treatment of movement disorders” (SOLVAY PHARMACEUTICALS B.V., priority 2004, published 2005)

Legend:
GDNF = test: Induction of growth factors: GDNF RNA in brain areas by quantitative PCR; type: in vivo; conditions: 3 mg/kg p.o. once daily, 3 weeks
Description: Compounds of the invention (3 mg/kg, p.o.) or vehicle are administered once daily during a period of 3 weeks (n=8 animals per treatment group). 24 hours after the last dose the animals are sacrificed (using CO2/O2 anesthesia), the brains are removed and the dissected. RNA is extracted from the individual brain samples and induction of the growth factors BDNF and GDNF is determined by quantitative PCR. Total RNA is isolated with the Trizol method (Invitrogen) from the brain pieces. cDNA is made starting with 2 μg of total RNA (pretreated for 30 min with DNAse (Ambion) in first strand buffer) using the reverse transcriptase Superscript II (Invitrogen). Quantification of […] by real time PCR makes use of the observation that the early cycles of PCR are characterized by an exponential increase in target amplification. The accumulation of PCR product is measured using Sybergreen II. Primers are designed using the software package Primer Express (Applied Biosystems). Expression levels of the housekeeping genes ornithine decarboxylase (ODC_ex8) and alpha tubulin (TUBA) used for normalization and as control for good cDNA synthesis.

5-HTreuptake = 5-HTreuptake (Homo sapiens, UniProt P31645); test: Binding 5-HT reuptake; conditions: radioligand [3H]-paroxetine, read-out: Ki(nM) Compound 1
Chain of 5-HTreuptake (P31645 whole entry): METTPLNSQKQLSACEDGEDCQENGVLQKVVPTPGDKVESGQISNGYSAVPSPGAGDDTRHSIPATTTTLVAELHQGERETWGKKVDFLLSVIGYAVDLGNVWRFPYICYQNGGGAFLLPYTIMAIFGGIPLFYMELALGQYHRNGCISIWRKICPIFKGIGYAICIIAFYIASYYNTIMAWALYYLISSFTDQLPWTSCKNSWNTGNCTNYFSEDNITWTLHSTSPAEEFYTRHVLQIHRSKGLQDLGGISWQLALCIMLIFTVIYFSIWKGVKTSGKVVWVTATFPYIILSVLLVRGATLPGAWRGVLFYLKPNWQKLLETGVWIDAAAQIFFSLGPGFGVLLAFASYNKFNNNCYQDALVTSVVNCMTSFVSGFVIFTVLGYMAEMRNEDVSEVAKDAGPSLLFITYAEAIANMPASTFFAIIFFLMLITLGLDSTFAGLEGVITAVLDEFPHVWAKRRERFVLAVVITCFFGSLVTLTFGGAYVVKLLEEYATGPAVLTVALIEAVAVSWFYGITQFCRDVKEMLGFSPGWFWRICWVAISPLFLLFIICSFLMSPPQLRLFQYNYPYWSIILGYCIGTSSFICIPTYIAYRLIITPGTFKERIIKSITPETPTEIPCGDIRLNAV
Description: (§1) Receptor binding data were obtained by CEREP (128, rue Danton, 92500 Rueil-Malmaison, France) or at Solvay Pharmaceuticals B.V., using well documented standard procedures. Affinity for 5-HT1A receptors for instance, was determined by testing the ability of the compounds of the invention to displace [^3H]-2-(di-n-propylamino)-8-hydroxytetralin ([^3H]-8-OH-DPAT) from its specific binding sites in rat frontal cortex homogenates. This test is based on the method described by Gozlan et al. (Nature, 305, (1983), pages 140-142).
(§2) The binding data collected in the table below were either obtained by CEREP (128, rue Danton, 92500 Rueil-Malmaison, France) or at Solvay Pharmaceuticals B.V., using well documented standard procedures.

Dopamine-D2 = Dopamine-D2 (Homo sapiens, UniProt P14416); test: Receptor binding Dopamine-D2; conditions: radioligand [3H]-spiperone, read-out: Ki(nM) Compound 1
Chain of Dopamine-D2 (P14416 whole entry): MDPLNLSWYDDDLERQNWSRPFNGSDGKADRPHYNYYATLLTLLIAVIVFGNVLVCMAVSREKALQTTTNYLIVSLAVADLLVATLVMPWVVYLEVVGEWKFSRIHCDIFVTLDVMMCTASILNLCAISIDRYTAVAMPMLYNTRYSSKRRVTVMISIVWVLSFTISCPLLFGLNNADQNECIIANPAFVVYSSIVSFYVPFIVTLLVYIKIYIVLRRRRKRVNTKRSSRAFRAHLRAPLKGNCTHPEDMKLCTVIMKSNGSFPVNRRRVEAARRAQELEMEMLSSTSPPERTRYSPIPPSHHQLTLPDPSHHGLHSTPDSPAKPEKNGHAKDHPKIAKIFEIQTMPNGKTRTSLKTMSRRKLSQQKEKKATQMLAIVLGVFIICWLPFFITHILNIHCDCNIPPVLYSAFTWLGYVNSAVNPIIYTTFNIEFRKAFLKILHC
Description: as §1, §2

Dopamine-D3 = Dopamine-D3 (Homo sapiens, UniProt P35462); test: Receptor binding Dopamine-D3; conditions: radioligand [3H]-spiperone, read-out: Ki(nM) Compound 1
Chain of Dopamine-D3 (P35462 whole entry): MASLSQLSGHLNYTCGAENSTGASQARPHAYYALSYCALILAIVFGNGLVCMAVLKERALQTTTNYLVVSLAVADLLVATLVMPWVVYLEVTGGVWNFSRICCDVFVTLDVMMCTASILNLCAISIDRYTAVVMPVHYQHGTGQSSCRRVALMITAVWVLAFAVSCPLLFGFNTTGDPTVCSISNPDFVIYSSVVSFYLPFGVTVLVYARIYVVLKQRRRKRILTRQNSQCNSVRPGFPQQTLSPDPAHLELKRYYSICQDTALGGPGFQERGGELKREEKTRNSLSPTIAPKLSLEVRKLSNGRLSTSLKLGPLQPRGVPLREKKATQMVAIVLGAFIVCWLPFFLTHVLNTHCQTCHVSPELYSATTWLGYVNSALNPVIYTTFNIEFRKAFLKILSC
Description: as §1, §2

Dopamine-D4 = Dopamine-D4 (Homo sapiens, UniProt P21917); test: Receptor binding Dopamine-D4; conditions: radioligand [3H]-spiperone, read-out: Ki(nM) Compound 1
Chain of Dopamine-D4 (P21917 whole entry): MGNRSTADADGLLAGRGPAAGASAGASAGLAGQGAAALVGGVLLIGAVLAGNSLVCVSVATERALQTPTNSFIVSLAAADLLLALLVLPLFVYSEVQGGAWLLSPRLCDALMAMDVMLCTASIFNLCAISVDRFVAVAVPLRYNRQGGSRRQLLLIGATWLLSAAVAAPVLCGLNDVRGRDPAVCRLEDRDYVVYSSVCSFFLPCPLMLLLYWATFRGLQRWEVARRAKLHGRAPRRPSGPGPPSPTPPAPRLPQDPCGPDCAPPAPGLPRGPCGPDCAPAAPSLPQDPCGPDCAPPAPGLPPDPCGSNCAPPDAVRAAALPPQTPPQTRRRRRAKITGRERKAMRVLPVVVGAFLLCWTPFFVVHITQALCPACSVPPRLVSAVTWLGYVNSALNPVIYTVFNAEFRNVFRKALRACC
Description: as §1, §2

Muscarine-M5 = Muscarine-M5 (Homo sapiens, UniProt P08912); test: Receptor binding Muscarine-M5; conditions: radioligand [3H]-4-DAMP, read-out: Ki(nM) Compound 1
Chain of Muscarine-M5 (P08912 whole entry): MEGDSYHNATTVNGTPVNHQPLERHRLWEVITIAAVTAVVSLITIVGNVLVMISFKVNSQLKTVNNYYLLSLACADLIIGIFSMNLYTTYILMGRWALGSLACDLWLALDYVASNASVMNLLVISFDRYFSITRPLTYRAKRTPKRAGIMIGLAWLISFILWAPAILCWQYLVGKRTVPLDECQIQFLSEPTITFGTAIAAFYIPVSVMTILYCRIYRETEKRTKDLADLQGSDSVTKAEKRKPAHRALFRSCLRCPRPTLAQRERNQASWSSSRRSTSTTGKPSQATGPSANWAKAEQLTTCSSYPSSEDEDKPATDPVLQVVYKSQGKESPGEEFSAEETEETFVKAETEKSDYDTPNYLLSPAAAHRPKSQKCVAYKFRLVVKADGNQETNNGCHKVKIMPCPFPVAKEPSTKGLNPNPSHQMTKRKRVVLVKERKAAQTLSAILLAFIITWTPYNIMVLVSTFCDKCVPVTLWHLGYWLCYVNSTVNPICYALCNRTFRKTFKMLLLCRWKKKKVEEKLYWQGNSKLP
Description: as §1, §2

sigma-SG2 = sigma-SG2 (Rattus norvegicus, UniProt Q5U3Y7); test: Receptor binding sigma-SG2; conditions: radioligand [3H]-DTG, read-out: Ki(nM) Compound 1
Chain of sigma-SG2 (Q5U3Y7 whole entry): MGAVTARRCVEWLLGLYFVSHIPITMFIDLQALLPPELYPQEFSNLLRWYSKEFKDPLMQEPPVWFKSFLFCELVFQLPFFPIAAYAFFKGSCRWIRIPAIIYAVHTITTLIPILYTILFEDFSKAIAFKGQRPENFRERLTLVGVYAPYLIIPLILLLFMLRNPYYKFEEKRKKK
Description: as §1, §2

cannabinoid-CB1 = cannabinoid-CB1 (Homo sapiens, UniProt P21554); test: Receptor binding cannabinoid-CB1; conditions: radioligand [3H]-WIN 55,212-2, read-out: Ki(nM) Compound 1
Chain of cannabinoid-CB1 (P21554 whole entry): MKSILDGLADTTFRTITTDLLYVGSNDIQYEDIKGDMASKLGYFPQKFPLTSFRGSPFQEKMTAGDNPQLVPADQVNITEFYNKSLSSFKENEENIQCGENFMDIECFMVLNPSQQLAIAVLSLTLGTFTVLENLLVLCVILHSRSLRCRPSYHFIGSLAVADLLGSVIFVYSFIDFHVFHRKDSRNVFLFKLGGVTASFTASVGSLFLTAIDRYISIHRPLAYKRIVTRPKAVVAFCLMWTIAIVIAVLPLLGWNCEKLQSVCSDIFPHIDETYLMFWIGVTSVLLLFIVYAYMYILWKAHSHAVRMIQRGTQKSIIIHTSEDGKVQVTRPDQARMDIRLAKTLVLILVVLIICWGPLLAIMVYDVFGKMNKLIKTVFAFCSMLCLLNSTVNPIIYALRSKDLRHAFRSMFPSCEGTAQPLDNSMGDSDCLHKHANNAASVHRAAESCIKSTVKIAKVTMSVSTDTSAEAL
Description: as §1, §2

Adenosine-A1 = Adenosine-A1 (Homo sapiens, UniProt P30542); test: Receptor binding Adenosine-A1; conditions: radioligand [3H]-DPCPX, read-out: Ki(nM) Compound 1
Chain of Adenosine-A1 (P30542 whole entry): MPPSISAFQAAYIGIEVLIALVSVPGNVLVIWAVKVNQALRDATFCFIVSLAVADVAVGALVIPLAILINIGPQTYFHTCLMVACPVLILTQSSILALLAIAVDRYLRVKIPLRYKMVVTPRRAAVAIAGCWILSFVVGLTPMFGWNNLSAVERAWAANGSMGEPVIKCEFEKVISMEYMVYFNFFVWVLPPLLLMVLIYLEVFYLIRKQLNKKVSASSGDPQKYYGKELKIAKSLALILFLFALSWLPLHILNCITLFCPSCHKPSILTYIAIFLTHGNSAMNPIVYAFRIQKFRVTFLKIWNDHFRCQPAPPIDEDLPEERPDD
Description: as §1, §2

angiotensin-AT1 = angiotensin-AT1 (Homo sapiens, UniProt P30556); test: Receptor binding angiotensin-AT1; conditions: radioligand [125I]-angiotensin II, read-out: Ki(nM) Compound 1
Chain of angiotensin-AT1 (P30556 whole entry): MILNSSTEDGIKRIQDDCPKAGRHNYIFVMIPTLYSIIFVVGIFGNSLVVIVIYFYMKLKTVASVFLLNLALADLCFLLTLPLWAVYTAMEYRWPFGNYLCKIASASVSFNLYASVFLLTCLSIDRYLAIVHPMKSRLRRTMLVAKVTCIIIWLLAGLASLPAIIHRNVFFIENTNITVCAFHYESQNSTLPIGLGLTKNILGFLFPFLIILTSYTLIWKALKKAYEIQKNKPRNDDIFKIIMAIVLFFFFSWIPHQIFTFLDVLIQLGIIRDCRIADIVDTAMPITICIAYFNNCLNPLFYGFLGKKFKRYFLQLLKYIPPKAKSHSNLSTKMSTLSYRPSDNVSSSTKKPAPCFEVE
Description: as §1, §2

LTD4 = LTD4 (Cavia porcellus, UniProt Q2NNR5); test: Receptor binding LTD4; conditions: radioligand [3H]-LTD4; guinea pig; read-out: Ki(nM) Compound 1
Chain of LTD4 (Q2NNR5 whole entry): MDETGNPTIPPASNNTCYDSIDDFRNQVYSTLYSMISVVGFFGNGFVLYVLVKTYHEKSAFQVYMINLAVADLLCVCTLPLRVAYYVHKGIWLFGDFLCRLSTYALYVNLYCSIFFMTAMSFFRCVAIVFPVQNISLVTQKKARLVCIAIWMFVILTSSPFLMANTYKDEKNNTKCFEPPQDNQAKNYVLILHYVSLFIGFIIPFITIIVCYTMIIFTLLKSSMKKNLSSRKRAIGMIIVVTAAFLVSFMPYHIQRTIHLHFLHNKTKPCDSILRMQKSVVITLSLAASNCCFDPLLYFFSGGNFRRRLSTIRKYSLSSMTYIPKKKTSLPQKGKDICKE
Description: as §1, §2

Neurokinin-NK2 = Neurokinin-NK2 (Homo sapiens, UniProt P21452); test: Receptor binding Neurokinin-NK2; conditions: radioligand [125I]-neurokininA, read-out: Ki(nM) Compound 1
Chain of Neurokinin-NK2 (P21452 whole entry): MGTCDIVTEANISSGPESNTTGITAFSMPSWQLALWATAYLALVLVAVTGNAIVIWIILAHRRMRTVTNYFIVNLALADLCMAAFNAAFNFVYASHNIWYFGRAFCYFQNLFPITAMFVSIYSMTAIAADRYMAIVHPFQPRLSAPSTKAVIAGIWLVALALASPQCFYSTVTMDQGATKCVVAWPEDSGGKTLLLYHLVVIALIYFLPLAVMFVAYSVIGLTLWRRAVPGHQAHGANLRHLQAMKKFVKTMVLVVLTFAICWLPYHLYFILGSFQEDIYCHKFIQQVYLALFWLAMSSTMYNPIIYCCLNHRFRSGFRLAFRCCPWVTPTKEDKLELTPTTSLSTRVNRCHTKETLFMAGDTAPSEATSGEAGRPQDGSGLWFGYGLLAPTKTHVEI
Description: as §1, §2

In the case of Nc1cc2cccc(N3CCNCC3)c2oc1=O [Compound 1, 3-amino-8-(1-piperazinyl)-2H-1-benzopyran-2-one], the “GDNF RNA, fold increase compared to vehicle treatment” value (from here on “GDNF RNA, fold increase”) (GDNF; hippocampus) is reported as 1.7 fold, the “GDNF RNA, fold increase” value (GDNF; nucleus accumbens) is reported as 1.5 fold and the “GDNF RNA, fold increase” value (GDNF; prefrontal cortex) is reported as 1.3 fold. The “GDNF RNA, fold increase” value (GDNF; striatum) was 2.2 fold, the “GDNF RNA, fold increase” value (GDNF; thalamus) was 2.6 fold and the Ki (5-HTreuptake) was greater than 1000 nM. For the same molecule, the Ki (Dopamine-D2) was greater than 1000 nM, the Ki (Dopamine-D3) was greater than 1000 nM and the Ki (Dopamine-D4) was greater than 1000 nM. For the same molecule, the Ki (Muscarine-M5) was greater than 1000 nM, the Ki (sigma-SG2) was greater than 1000 nM and the Ki (cannabinoid-CB1) was greater than 10000 nM. It also gave a Ki (Adenosine-A1) greater than 1000 nM, a Ki (angiotensin-AT1) greater than 1000 nM and a Ki (LTD4) greater than 10000 nM. It also gave a Ki (Neurokinin-NK2) greater than 1000 nM.
